From patent publication US11866430B2, “Naphthyridinone compounds useful as T cell activators” (priority 2018, dated 2024) come the findings set out here.

Read-outs that look alike come from different tables or passages of the source.

For assay [1], the target named is human DGKα (Homo sapiens (Human), UniProt P23743). The assay is described as follows: biochemical. Particulars: detergent/lipid micelle substrate; read-out: DGKα IC50. On the procedure: (§1) The DGKα and DGKζ reactions were performed using either extruded liposome (DGKα and DGKζ LIPGLO assays) or detergent/lipid micelle substrate (DGKα and DGKζ assays). The reactions were carried out in 50 mM MOPS pH 7.5, 100 mM NaCl, 10 mM MgCl2, 1 μM CaCl2, and 1 mM DTT (assay buffer). The reactions using a detergent/lipid micelle substrate also contained 50 mM octyl B-D-glucopyranoside. […] The lipid substrate concentrations were […], 0.25 mM DAG, and 2.75 mM PC for the extruded liposome reactions.
Sequence of human DGKα (P23743 other isoform, or with tags, fused parts or gaps): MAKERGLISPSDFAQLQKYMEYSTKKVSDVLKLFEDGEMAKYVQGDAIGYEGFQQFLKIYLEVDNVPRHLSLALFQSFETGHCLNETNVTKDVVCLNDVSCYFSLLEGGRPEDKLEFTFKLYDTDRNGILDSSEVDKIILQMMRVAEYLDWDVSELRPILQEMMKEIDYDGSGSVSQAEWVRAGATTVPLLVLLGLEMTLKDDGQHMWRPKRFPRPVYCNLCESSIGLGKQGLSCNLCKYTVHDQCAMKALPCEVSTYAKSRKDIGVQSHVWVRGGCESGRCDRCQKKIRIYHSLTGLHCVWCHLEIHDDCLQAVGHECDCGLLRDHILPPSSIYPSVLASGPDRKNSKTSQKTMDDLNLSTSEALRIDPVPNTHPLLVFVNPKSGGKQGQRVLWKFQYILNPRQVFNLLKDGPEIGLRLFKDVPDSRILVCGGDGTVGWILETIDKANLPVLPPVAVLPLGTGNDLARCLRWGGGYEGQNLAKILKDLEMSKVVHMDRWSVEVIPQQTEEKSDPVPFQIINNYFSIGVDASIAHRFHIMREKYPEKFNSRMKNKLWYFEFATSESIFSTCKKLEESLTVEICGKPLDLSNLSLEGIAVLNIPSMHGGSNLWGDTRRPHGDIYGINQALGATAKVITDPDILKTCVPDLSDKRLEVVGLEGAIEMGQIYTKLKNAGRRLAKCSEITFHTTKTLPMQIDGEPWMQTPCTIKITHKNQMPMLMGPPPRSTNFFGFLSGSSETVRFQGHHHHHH
(§2) The compound inhibition studies were carried out as follows: 50 nL droplets of each test compound (top concentration 10 mM with 11 point, 3-fold dilution series for each compound) solubilized in DMSO were transferred to wells of a white 1536 well plate (Corning 3725). A 5 mL enzyme/substrate solution at 2× final reaction concentration was prepared by combining 2.5 mL 4× enzyme solution (20 nM DGKα or DGKζ (prepared as described below) in assay buffer) and 2.5 mL of either 4× liposome or 4× detergent/lipid micelle solution (compositions described below) and incubated at room temperature for 10 minutes. Next, 1 μL 2× enzyme/substrate solution was added to wells containing the test compound and reactions were initiated with the addition of 1 μL 300 uM ATP. The reactions were allowed to proceed for 1 hr, after which 2 μL Glo Reagent (Promega V9101) was added and incubated for 40 minutes. Next, 4 μL Kinase Detection Reagent was added and incubated for 30 minutes. Luminescence was recorded using an EnVision microplate reader. […] The compounds were evaluated at 11 concentrations to determine IC50.
(§3) The detergent/lipid micelle was prepared by combining 15 g phosphatidylserine (Avanti 840035P) and 1 g diacylglycerol (800811O) and dissolving into 150 mL chloroform in a 2 L round bottom flask. Chloroform was removed under high vacuum by rotary evaporation. The resulting colorless, tacky oil was resuspended in 400 mL 50 mM MOPS pH 7.5, 100 mM NaCl, 20 mM NaF, 10 mM MgCl2, 1 μM CaCl2), 1 mM DTT, and 200 mM octyl glucoside by vigorous mixing. The lipid/detergent solution was split into 5 mL aliquots and stored at −80° C.
(§4) Human DGK-alpha-TVMV-His-pFBgate and human DCK-zeta-transcript variant-2-TVMV-His-pFBgate baculovirus samples were generated using the Bac-to-Bac baculovirus expression system (Invitrogen) according to the manufacturer's protocol. The DNA used for expression of DGK-alpha and DGK-zeta have SEQ ID NOs: 1 and 3, respectively. Baculovirus amplification was achieved using infected Sf9 cells at 1:1500 virus/cell ratios, and grown for 65 hours at 27° C. post-transfection.
(§5) The expression scale up for each protein was carried out in the Cellbag 50 L WAVE-Bioreactor System 20/50 from GE Healthcare Bioscience. 12 L of 2×10^6 cells/mL Sf9 cells (Expression System, Davis, Calif.) grown in ESF921 insect medium (Expression System) were infected with virus stock at 1:200 virus/cell ratios, and grown for 66-68 hours at 27° C. post-infection. The infected cell culture was harvested by centrifugation at 2000 rpm for 20 min 4° C. in a SORVALL® RC12BP centrifuge. The cell pellets were stored at −70° C. until purification.
(§6) Full length human DGKα and DGKζ, each expressed containing a TVMV-cleavable C-terminal Hexa-His tag sequence (SEQ ID NOs: 2 and 4, respectively) and produced as described above, were purified from Sf) baculovirus-infected insect cell paste. The cells were lysed using nitrogen cavitation method with a nitrogen bomb (Parr Instruments), and the lysates were clarified by centrifugation. […] The three steps column chromatography included nickel affinity resin capture (i.e. HisTrap FF crude, GE Healthcare), followed by size exclusion chromatography (i.e. HiLoad 26/600 Superdex 200 prep grade, GE Healthcare for DGK-alpha, and HiPrep 26/600 Sephacryl S 300_HR, GE Healthcare for DGK-zeta).

Assay [2] deals with human DGKζ (Homo sapiens (Human), UniProt Q13574). The assay is described as follows: DGKζ assay (detergent/lipid micelle substrate). It is filed as biochemical. The settings on record: detergent/lipid micelle substrate; read-out: DGKζ IC50. On the procedure: as §1, §2, §3, §4, §5, §6
Sequence of human DGKζ (Q13574 other isoform, or with tags, fused parts or gaps): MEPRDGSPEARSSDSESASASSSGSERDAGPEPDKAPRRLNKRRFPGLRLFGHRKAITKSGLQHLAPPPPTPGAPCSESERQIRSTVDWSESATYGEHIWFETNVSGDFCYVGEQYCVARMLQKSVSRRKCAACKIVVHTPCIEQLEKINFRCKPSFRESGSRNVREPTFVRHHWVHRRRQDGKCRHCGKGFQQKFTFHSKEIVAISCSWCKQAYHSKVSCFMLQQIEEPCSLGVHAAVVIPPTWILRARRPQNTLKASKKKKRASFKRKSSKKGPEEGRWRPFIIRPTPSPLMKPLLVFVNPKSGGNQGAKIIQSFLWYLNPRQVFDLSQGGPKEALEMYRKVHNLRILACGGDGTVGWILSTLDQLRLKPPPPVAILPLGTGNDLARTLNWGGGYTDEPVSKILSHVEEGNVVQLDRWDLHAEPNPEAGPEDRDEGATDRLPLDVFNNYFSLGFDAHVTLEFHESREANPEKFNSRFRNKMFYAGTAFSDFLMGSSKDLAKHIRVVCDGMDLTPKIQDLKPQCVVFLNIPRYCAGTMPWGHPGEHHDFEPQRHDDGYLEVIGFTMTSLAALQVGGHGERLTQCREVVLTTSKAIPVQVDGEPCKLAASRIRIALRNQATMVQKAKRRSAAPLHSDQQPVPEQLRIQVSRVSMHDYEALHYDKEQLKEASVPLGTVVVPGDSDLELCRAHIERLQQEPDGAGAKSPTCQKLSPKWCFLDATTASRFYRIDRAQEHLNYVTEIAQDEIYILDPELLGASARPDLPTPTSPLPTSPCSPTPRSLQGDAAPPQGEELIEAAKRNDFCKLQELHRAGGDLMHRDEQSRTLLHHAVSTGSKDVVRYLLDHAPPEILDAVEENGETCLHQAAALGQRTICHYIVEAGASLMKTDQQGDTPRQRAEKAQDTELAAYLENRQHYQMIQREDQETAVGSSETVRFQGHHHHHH
For assay [3], the system named is pre-activated CD4 T cells and Raji cells. In words: Raji CD4 T Cell IL2 Assay. Type of assay: cell-based.

Broadly, the IC50 is the concentration at which inhibition is half-maximal. Regarding `COCCn1c(=O)c(C#N)c(N2CCN(C(c3ccc(F)cc3)c3ccc(F)cc3OC)CC2)c2nc(Br)ccc21` (single isomer, unassigned) [Example 116, 6-bromo-4-(4-((4-fluoro-2-methoxyphenyl)(4-fluorophenyl)methyl)piperazin-1-yl)-1-(2-methoxyethyl)-2-oxo-1,2-dihydro-1,5-naphthyridine-3-carbonitrile], the half-inhibitory concentration (IC50) in assay [1] is greater than 240000 nM; in assay [2] it was greater than 240000 nM; in assay [3], 170 nM.
On to `C#CCn1c(=O)c([N+](=O)[O-])c(N2CCN(C(c3ccc(F)cc3)C3CC3)CC2)c2nc(C#N)ccc21` (single isomer, unassigned) [Example 144, 8-(4-(cyclopropyl(4-fluorophenyl)methyl)piperazin-1-yl)-7-nitro-6-oxo-5-(prop-2-yn-1-yl)-5,6-dihydro-1,5-naphthyridine-2-carbonitrile], for which the half-inhibitory concentration (IC50) in assay [1] was found to be 530 nM; in assay [2], 7900 nM; in assay [3] (Homo sapiens, Raji), 20 nM.
On to `COCCn1c(=O)c([N+](=O)[O-])c(N2CCN(C(C)c3ccc(F)cc3)CC2)c2nc(C#N)ccc21` (single isomer, unassigned) [Example 149, 8-(4-(1-(4-fluorophenyl)ethyl)piperazin-1-yl)-5-(2-methoxyethyl)-7-nitro-6-oxo-5,6-dihydro-1,5-naphthyridine-2-carbonitrile], for which the 50% inhibitory concentration (IC50) in assay [1] stood at 47000 nM; in assay [2], 86000 nM; in assay [3], 64 nM.
For `COCCn1c(=O)c([N+](=O)[O-])c(N2CCN(C(C)c3ccc(F)cc3)CC2)c2nc(C#N)ccc21` (single isomer, unassigned) [Example 150, 8-(4-(1-(4-fluorophenyl)ethyl)piperazin-1-yl)-5-(2-methoxyethyl)-7-nitro-6-oxo-5,6-dihydro-1,5-naphthyridine-2-carbonitrile], in that order: 73000 nM, 88000 nM and 510 nM.
`COc1ccccc1C(c1ccc(F)cc1)N1CCN(c2c(C#N)c(=O)n(CC3CC3)c3ccc(Br)nc23)CC1` (single isomer, unassigned) [Example 159, 6-bromo-1-(cyclopropylmethyl)-4-(4-((4-fluorophenyl)(2-methoxyphenyl)methyl)piperazin-1-yl)-2-oxo-1,2-dihydro-1,5-naphthyridine-3-carbonitrile]: the IC50 in assay [1] is 120000 nM; in assay [2] it was greater than 240000 nM; in assay [3] (Homo sapiens, Raji), 2000 nM.
With `COc1ccccc1C(c1ccc(F)cc1)N1CCN(c2c(C#N)c(=O)n(CC3CC3)c3ccc(Br)nc23)CC1` (single isomer, unassigned) [Example 160, 6-bromo-1-(cyclopropylmethyl)-4-(4-((4-fluorophenyl)(2-methoxyphenyl)methyl)piperazin-1-yl)-2-oxo-1,2-dihydro-1,5-naphthyridine-3-carbonitrile], the results for the half-inhibitory concentration (IC50) in assay [1], in assay [2] and in assay [3] were 180000 nM, 160000 nM and 2900 nM, respectively.
Regarding `Cn1c(=O)c(C#N)c(N2CCN(Cc3ccccc3O)CC2)c2nc(Br)ccc21` [Example 2, 6-Bromo-4-(4-(2-hydroxybenzyl)piperazin-1-yl)-1-methyl-2-oxo-1,2-dihydro-1,5-naphthyridine-3-carbonitrile], the IC50 in assay [1] is 49 nM; in assay [2], greater than 240000 nM; in assay [3] (Homo sapiens, Raji) it was 200 nM.
Taken in the same sequence, the figures for `COc1ccc2c(c1)C(N1CCN(c3c(C#N)c(=O)n(C)c4ccc(Br)nc34)CC1)CC2` (stereo not drawn) [Example 21, 6-bromo-4-[4-(6-methoxy-2,3-dihydro-1H-inden-1-yl)piperazin-1-yl]-1-methyl-2-oxo-1,2-dihydro-1,5-naphthyridine-3-carbonitrile] were 22000 nM, 94000 nM and 410 nM.
On to `Cn1c(=O)c(C#N)c(N2CCN(C(CO)c3ccc(F)cc3)CC2)c2nc(Br)ccc21` (stereo not drawn) [Example 31, 6-bromo-4-{4-[1-(4-fluorophenyl)-2-hydroxyethyl]piperazin-1-yl}-1-methyl-2-oxo-1,2-dihydro-1,5-naphthyridine-3-carbonitrile], for which the IC50 in assay [1] is 1200 nM; in assay [2], greater than 240000 nM; in assay [3] (Homo sapiens, Raji) it was 1800 nM.
For `C#CCOc1ccccc1C(c1ccc(F)cc1)N1CCN(c2c(C#N)c(=O)n(C)c3ccc(Cl)nc23)CC1` (stereo not drawn) [Example 39, 6-chloro-4-{4-[(4-fluorophenyl)[2-(prop-2-yn-1-yloxy)phenyl]methyl]piperazin-1-lv}-1-methyl-2-oxo-1,2-dihydro-1,5-naphthyridine-3-carbonitrile], in that order: 50000 nM, greater than 240000 nM and 640 nM.
Taken in the same sequence, the figures for `Cn1c(=O)c([N+](=O)[O-])c(N2CCN(C(c3ccc(F)cc3)c3ccc(F)cc3)CC2)c2nc(C#N)ccc21` [Example 40, 8-(4-(bis(4-fluorophenyl)methyl)piperazin-1-yl)-5-methyl-7-nitro-6-oxo-5,6-dihydro-1,5-naphthyridine-2-carbonitrile] were 1900 nM, 1300 nM and 37 nM.
Taken in the same sequence, the figures for `COc1ccc2c(c1)C(N1CCN(c3c([N+](=O)[O-])c(=O)n(C)c4ccc(C#N)nc34)CC1)CC2` (stereo not drawn) [Example 46, 8-(4-(6-methoxy-2,3-dihydro-1H-inden-1-yl)piperazin-1-yl)-5-methyl-7-nitro-6-oxo-5,6-dihydro-1,5-naphthyridine-2-carbonitrile] were 8500 nM, 2700 nM and 130 nM.
For the compound `Cn1c(=O)c([N+](=O)[O-])c(N2CCN(C(c3ccccc3)c3ccccc3)CC2)c2nc(Br)ccc21` [Example 52, 4-(4-benzhydrylpiperazin-1-yl)-6-bromo-1-methyl-3-nitro-1,5-naphthyridin-2(1H)-one], the IC50 in assay [1] worked out at 7800 nM; in assay [2], 150000 nM; in assay [3] (Homo sapiens, Raji), 56 nM.
In the case of `Cn1c(=O)c([N+](=O)[O-])c(N2CCN(C(c3ccc(F)cc3)c3ccc(F)cc3)CC2)c2nc(Br)ccc21` [Example 53, 4-(4-(bis(4-fluorophenyl)methyl)piperazin-1-yl)-6-bromo-1-methyl-3-nitro-1,5-naphthyridin-2(1H)-one], the IC50 in assay [1] was found to be 1500 nM; in assay [2], 16000 nM; in assay [3] (Homo sapiens, Raji) it was 43 nM.
Regarding `C#CCn1c(=O)c(C#N)c(N2CCN(Cc3ccccc3C(F)F)CC2)c2nc(Br)ccc21` [Example 64, 6-bromo-4-(4-(2-(difluoromethyl)benzyl)piperazin-1-yl)-2-oxo-1-(prop-2-yn-1-yl)-1,2-dihydro-1,5-naphthyridine-3-carbonitrile], the IC50 in assay [1] stood at 2700 nM; in assay [2], 14000 nM; in assay [3] (Homo sapiens, Raji), 55000 nM.
As for `C#CCn1c(=O)c(C#N)c(N2CCN(Cc3ccc(F)cc3OC)CC2)c2nc(Br)ccc21` [Example 68, 6-bromo-4-(4-(4-fluoro-2-methoxybenzyl)piperazin-1-yl)-2-oxo-1-(prop-2-yn-1-yl)-1,2-dihydro-1,5-naphthyridine-3-carbonitrile], the half-maximal inhibitory concentration (IC50) worked out at 4000 nM in assay [1]; 23000 nM in assay [2]; 52 nM in assay [3] (Homo sapiens, Raji).
